In patent publication US12264156B2, “Compounds and pharmaceutical compositions thereof for the treatment of diseases” (GALAPAGOS NV, priority 2018, dated 2025) one finds EC50 and IC50 data, which are given here for 15 compounds.

A value given as a limit tells only on which side of the number the result lay.

Assay [1] deals with LPS-induced TNFα in monocyte-derived macrophages (MdM). Description: MdM assay: LPS-triggered TNFα (ELISA). The class given is cell-based, human. The conditions noted are these: Homo sapiens, Macrophage, 20 h, monocyte-derived macrophages, LPS 200 ng/mL, supernatant after 20 h; read-out: TNFα EC50. Here is the method:
This assay evaluates illustrative compounds of the invention for their inhibition of LPS-induced TNFα and LPS triggered IL-10 secretion in monocyte-derived macrophages.
PBMCs are isolated from human blood samples (buffycoats). The buffy coat is aseptically transferred into a 50 mL Falcon tube, and diluted 1/2 in PBS. Falcon tubes are filled with 20 mL Lymphoprep™, on top of which 25 mL of the buffy coat is carefully added, tubes are centrifuged for 35 min at 400 g in temperature controlled centrifuge, without brake, at 25° C. PBMCs are aspirated from the white interface layer between sample and Lymphoprep™. PBMCs are washed five times in PBS.
PBMCs are centrifuged at 300×g for 10 min and resuspended at a density of 1.0*10^7 cells/80 μL Miltenyi buffer (PBS, pH 7.4, 1% FBS, 2 mM EDTA).
Starting from this point of the protocol all steps are performed on ice. 20 μL of CD14+ micro-beads are added per 1.0*10^7 cells, the tube is mixed and incubated for 15 min in the fridge at 4° C. Cell suspension volume is adjusted to total volume of 100 mL using Miltenyi buffer, mixed gently and subsequently centrifuged for 10 min at 300×g. Supernantant is discarded and cell pellet is resuspended in 12 mL of Miltenyi buffer.
Four LS columns are placed in the MACS Separator (magnet) from Miltenyi Biotec, and are prewet by rinsing with 3 mL of MACS buffer per column. Three mL of cell suspension is added onto the column (max 1*10^8 of labelled cells/column), and columns are subsequently washed 3 times with 3 mL of Miltenyi buffer.
The columns are removed from the magnets, and 5 mL of Miltenyi buffer are added to the column to flush out the CD14+ fraction by pushing the plunger into the column. The flushed fractions are collected in a fresh 50 mL Falcon and volume is adjusted to 30 mL using Miltenyi buffer, cells are centrifuged for 10 min at 300×g. The obtained cell pellet is resuspended in 10 mL RPMI w/o FBS, and cell density is determined using a hematologic analyser (Sysmex XS-500i).
On day 10, MdMs are triggered and compound is added.
A compound dilution plate is made in 100% DMSO by 3-fold dilution of 10 mM stock solution. An intermediate dilution plate (10× final concentration) is made by diluting the compound dilution plate 50-fold in RPMI medium.
Medium is carefully removed from cell plates using multichannel pipette, and replaced by 80 μL fresh medium. 10 μL of the 10× final concentration compound is added to the cells and incubated for 1 hour at 37° C. before addition of trigger. No trigger conditions/trigger conditions are spiked with equal final DMSO concentrations of 0.2% DMSO. 10 μL of 10×LPS (final conc. 200 ng/mL) solution are added to all wells except for the ‘no trigger wells’ where 10 μL medium is added. Supernatant is collected after 2 h (IL-10 determination) and after 20 h (TNFα determination) of LPS triggering.
The plate is then washed once with PBST (PBS+0.05% Tween20) and once with PBS followed by the addition of 100 μL of blocking buffer (1% Bovine Serum Albumin (BSA)−5% Sucrose) and plates are sealed and incubated for at least 4 h at RT. After washing the plate once with PBST and once with PBS, 40 μL of standard or sample are added (TNFα standard curve is prepared using a 1/2 serial dilution starting from […]; dilutions are made in dilution buffer (PBS+1% BSA)). Plates are washed twice with PBST, and once with PBS, after which 35 μL of the detection antibody is added (final concentration 0.25 μg/mL diluted in dilution buffer) and plates are incubated for at least 2 h at RT. Plates are washed twice with PBST, and once with PBS, where after 35 μL of Strep-HRP conjugate (0.5 μg/mL final concentration diluted in dilution buffer) is added. Plates are incubated in the dark, at RT for at least 45 min but no longer than 1 hour. Plates are washed twice with PBST, and once with PBS.

In another assay the target is T1, SIK1 (Homo sapiens, UniProt P57059).
T1 construct: purchased Carna Biosciences 02-131
T1 sequence (P57059 whole entry): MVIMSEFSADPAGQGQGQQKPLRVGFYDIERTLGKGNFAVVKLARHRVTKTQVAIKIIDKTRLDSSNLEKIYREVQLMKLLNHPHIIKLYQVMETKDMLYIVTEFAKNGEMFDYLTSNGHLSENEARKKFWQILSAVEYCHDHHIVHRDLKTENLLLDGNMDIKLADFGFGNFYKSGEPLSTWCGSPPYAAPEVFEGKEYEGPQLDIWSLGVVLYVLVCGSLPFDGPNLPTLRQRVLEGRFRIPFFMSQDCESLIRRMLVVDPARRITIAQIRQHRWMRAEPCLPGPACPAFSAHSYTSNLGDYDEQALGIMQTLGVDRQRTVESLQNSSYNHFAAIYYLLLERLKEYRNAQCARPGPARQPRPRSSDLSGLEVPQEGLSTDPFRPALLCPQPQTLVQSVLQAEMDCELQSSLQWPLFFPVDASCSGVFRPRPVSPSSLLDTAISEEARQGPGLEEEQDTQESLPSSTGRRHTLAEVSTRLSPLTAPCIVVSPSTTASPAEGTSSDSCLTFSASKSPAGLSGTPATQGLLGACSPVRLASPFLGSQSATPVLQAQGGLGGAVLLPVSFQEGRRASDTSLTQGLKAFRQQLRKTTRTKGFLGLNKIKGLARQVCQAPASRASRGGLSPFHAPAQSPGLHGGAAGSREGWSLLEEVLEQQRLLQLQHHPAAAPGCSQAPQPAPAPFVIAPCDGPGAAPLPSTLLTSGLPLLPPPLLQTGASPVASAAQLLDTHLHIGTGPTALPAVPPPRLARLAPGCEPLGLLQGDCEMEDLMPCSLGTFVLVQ
Briefly: ADP-Glo kinase assay, SIK1. In kind it is biochemical. The conditions noted are these: ADP-Glo SIK kinase assay. The essentials:
(§1)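 Wells with 1% DMSO or 10 μM staurosporine (final) define the control window. The kinase reaction with substrate and ATP runs 120 min at RT, followed by ADP-Glo detection: ATP depletion (40 min) and ADP-derived luminescence (30 min).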
On the technique in general: In ADP-Glo the light output rises with the ADP produced.

In a further assay the target is T2, SIK3 (Homo sapiens, UniProt Q9Y2K2).
T2 construct: purchased SignalChem S12-11G-100
T2 sequence (Q9Y2K2 whole entry): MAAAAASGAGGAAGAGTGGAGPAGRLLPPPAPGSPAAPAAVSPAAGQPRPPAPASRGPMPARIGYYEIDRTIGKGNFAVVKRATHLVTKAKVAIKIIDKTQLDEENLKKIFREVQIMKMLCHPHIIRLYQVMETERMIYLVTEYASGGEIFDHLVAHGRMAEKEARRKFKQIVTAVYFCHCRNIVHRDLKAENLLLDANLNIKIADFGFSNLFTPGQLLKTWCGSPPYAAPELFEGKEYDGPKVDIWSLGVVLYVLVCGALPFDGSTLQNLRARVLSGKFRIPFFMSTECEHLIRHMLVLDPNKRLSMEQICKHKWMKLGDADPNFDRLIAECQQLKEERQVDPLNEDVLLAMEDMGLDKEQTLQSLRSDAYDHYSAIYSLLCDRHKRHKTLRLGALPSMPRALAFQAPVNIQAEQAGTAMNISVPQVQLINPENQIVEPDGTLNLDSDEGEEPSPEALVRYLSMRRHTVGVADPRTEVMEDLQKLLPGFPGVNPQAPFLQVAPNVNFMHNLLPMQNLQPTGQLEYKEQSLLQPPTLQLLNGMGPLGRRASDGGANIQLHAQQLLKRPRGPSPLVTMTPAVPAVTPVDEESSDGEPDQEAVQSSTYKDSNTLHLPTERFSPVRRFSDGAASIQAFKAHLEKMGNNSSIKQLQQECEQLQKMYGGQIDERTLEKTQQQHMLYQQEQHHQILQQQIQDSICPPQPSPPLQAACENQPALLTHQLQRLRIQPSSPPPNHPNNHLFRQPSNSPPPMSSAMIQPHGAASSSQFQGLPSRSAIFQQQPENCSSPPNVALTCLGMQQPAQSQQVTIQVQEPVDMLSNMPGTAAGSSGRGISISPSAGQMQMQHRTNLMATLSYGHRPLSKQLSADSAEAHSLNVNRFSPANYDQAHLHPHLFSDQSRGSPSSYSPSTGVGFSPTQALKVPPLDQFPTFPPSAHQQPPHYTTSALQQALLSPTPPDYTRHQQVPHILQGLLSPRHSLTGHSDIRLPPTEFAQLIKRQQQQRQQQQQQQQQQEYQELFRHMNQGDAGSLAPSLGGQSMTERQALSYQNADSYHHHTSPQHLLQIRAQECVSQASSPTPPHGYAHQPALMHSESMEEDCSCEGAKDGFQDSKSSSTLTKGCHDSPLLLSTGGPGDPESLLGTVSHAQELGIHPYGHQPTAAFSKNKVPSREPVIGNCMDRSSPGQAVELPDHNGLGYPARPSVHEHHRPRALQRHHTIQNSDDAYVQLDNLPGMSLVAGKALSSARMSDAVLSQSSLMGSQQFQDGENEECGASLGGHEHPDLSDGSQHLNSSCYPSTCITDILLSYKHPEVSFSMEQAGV
Briefly: ADP-Glo kinase assay, SIK3. The class given is biochemical. As to conditions: ADP-Glo SIK kinase assay. A digest of the protocol: as §1

The target of the next assay is T3, SIK2 (Homo sapiens, UniProt Q9H0K1).
T3 construct: purchased ThermoFisher Scientific PV4792
T3 sequence (Q9H0K1 whole entry): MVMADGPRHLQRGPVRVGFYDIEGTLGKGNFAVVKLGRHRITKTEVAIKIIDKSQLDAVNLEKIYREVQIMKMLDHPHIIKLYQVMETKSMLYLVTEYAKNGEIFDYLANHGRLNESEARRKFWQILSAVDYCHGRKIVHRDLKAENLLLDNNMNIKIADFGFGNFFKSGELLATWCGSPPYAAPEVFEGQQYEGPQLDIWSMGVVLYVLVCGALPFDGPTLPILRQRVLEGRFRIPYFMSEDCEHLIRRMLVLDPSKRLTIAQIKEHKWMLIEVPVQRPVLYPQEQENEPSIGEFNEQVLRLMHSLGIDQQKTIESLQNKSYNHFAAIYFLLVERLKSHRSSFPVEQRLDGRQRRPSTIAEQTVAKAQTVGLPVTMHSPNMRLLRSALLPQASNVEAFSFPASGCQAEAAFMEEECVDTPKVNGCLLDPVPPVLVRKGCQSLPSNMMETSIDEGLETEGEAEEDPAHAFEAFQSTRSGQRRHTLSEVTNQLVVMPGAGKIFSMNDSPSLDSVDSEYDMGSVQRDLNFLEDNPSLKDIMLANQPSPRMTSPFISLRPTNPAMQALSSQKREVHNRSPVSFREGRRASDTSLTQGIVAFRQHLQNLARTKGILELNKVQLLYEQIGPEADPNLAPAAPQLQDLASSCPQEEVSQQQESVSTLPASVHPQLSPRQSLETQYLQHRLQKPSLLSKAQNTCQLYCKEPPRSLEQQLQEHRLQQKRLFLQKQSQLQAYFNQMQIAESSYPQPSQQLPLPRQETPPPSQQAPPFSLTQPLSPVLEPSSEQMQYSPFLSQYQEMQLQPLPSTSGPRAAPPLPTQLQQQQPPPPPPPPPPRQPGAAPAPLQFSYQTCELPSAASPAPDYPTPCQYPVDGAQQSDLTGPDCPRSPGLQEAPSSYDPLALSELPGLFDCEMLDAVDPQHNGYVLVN
Description: ADP-Glo kinase assay, SIK2. As to conditions: ADP-Glo SIK kinase assay. In kind it is biochemical. The essentials:
as §1

In the case of `COc1cc(-c2cnc3cc(OCC4(C)CCCCN4)ccn23)cc(OC(F)F)c1C(=O)NC1CC1` (stereo not drawn) [compound 172, N-cyclopropyl-2-(difluoromethoxy)-6-methoxy-4-[7-[(2-methyl-2-piperidyl)methoxy]imidazo[1,2-a]pyridin-3-yl]benzamide], in assay [1], the concentration giving a half-maximal response (EC50) is 1000 to 5000 nM. Moreover, the IC50 against SIK1 lay within 100 to 500 nM; against SIK3 it was 0.01 to 10 nM; against SIK2, 0.01 to 10 nM.
In the case of `O=C1c2c(cc(-c3cnc4cc(OCCN5CCOCC5)ccn34)cc2OC(F)F)CCN1C1CC1` [Cpd 224, 2-cyclopropyl-8-(difluoromethoxy)-6-[7-(2-morpholinoethoxy)imidazo [1,2-a]pyridin-3-yl]-3,4-dihydroisoquinolin-1-one], in assay [1], the 50% effective concentration (EC50) lay in the range of 100 to 1000 nM. The values for the 50% inhibitory concentration (IC50) on SIK1, against SIK3 and on SIK2 were 100 to 500 nM, 0.01 to 10 nM and 0.01 to 10 nM, respectively.
On to `COc1cc(-c2cnc3cc(OC[C@@H]4CCCN4C)ccn23)cc(OC(F)F)c1C(=O)NC1CC1` [compound 79, N-cyclopropyl-2-(difluoromethoxy)-6-methoxy-4-[7-[[(2S)-1-methylpyrrolidin-2-yl]methoxy]imidazo[1,2-a]pyridin-3-yl]benzamide], for which the EC50 in assay [1] lay within 100 to 1000 nM. Also, the IC50 against SIK1 lay within 10 to 100 nM; against SIK3 it was 0.01 to 10 nM; at SIK2, 0.01 to 10 nM.
Turning to `COc1cc(-c2cnc3cc(OC[C@@H]4CCCCN4C)ccn23)cc(OC(F)F)c1C(=O)NC1CC1` [compound 139, N-cyclopropyl-2-(difluoromethoxy)-6-methoxy-4-[7-[[(2S)-1-methyl-2-piperidyl]methoxy]imidazo [1,2-a]pyridin-3-yl]benzamide], the EC50 in assay [1] fell in the range of 100 to 1000 nM. For the same compound, the half-maximal inhibitory concentration (IC50) lay within 100 to 500 nM against SIK1, 0.01 to 10 nM on SIK3 and 0.01 to 10 nM against SIK2.
As to `COc1cc(-c2cnc3cc(OCCN4CCOCC4)ccn23)cc2c1C(=O)NCC2` [Cpd 217, 8-methoxy-6-[7-(2-morpholinoethoxy)imidazo [1,2-a]pyridin-3-yl]-3,4-dihydro-2H-isoquinolin-1-one], the half-maximal effective concentration (EC50) in assay [1] was 100 to 1000 nM. The IC50 against SIK1 was in the range of 10 to 100 nM; at SIK3, 0.01 to 10 nM; on SIK2, 0.01 to 10 nM.
`COc1cc(-c2cnc3cc(OC4CC5CCC4C5)ccn23)cc(OC(F)F)c1C(=O)NC1CC1` (stereo not drawn) [compound 58, N-cyclopropyl-2-(difluoromethoxy)-6-methoxy-4-(7-norbornan-2-yloxyimidazo[1,2-a]pyridin-3-yl)benzamide]: in assay [1], the EC50 was in the range of 1000 to 5000 nM. Besides, the concentration for half-maximal inhibition (IC50) at SIK1 was in the range of 10 to 100 nM; at SIK3 it was 0.01 to 10 nM; on SIK2, 10 to 100 nM.
As to `COc1cc(-c2cnc3cc(OCc4cnco4)ccn23)cc(OC(F)F)c1C(=O)NC1CC1` [compound 33, N-cyclopropyl-2-(difluoromethoxy)-6-methoxy-4-[7-(oxazol-5-ylmethoxy)imidazo[1,2-a]pyridin-3-yl]benzamide], in assay [1], the EC50 was 0.1 to 100 nM. For the same compound, the values for the IC50 on SIK1, against SIK3 and against SIK2 were 10 to 100 nM, 0.01 to 10 nM and 0.01 to 10 nM, respectively.
As to `COc1cc(-c2cnc3cc(OCCN(C)C)ccn23)cc2c1C(=O)N(CC#N)CC2` [compound 67, 2-[6-[7-[2-(dimethylamino)ethoxy]imidazo[1,2-a]pyridin-3-yl]-8-methoxy-1-oxo-3,4-dihydroisoquinolin-2-yl]acetonitrile], in assay [1], the EC50 lay within 1000 to 5000 nM. Moreover, the values for the half-inhibitory concentration (IC50) against SIK1, on SIK3 and on SIK2 were above 500 nM, 0.01 to 10 nM and 0.01 to 10 nM, respectively.
As to `COc1cc(-c2cnc3cc(OCc4ccnn4C)ccn23)cc2c1C(=O)N(CC(F)(F)F)CC2` [compound 84, 8-methoxy-6-[7-[(2-methylpyrazol-3-yl)methoxy]imidazo[1,2-a]pyridin-3-yl]-2-(2,2,2-trifluoroethyl)-3,4-dihydroisoquinolin-1-one], the concentration for a half-maximal effect (EC50) in assay [1] lay within 100 to 1000 nM. For the same compound, the figures for the 50% inhibitory concentration (IC50) against SIK1, against SIK3 and against SIK2 were 100 to 500 nM, 0.01 to 10 nM and 10 to 100 nM, respectively.
For the compound `COc1cc(-c2cnc3cc(OCC4(C)CCCN4)ccn23)cc(OC(F)F)c1C(=O)NC1CC1` (stereo not drawn) [compound 168, N-cyclopropyl-2-(difluoromethoxy)-6-methoxy-4-[7-[(2-methylpyrrolidin-2-yl)methoxy]imidazo[1,2-a]pyridin-3-yl]benzamide], the EC50 in assay [1] was in the range of 100 to 1000 nM. The concentration for half-maximal inhibition (IC50) on SIK1 was in the range of 100 to 500 nM; on SIK3, 0.01 to 10 nM; on SIK2, 0.01 to 10 nM.
On to `CNc1cc(-c2cnc3cc(OCCN(C)C)ccn23)cc(OC(F)F)c1C(=O)NC1CC1` [compound 147, N-cyclopropyl-2-(difluoromethoxy)-4-[7-[2-(dimethylamino)ethoxy]imidazo[1,2-a]pyridin-3-yl]-6-(methylamino)benzamide], for which the EC50 in assay [1] is 100 to 1000 nM. For the same compound, the IC50 lay in the range of 10 to 100 nM on SIK1, 0.01 to 10 nM against SIK3 and 0.01 to 10 nM against SIK2.
Take `COc1cc(-c2cnc3cc(OCCCN4CCOCC4)ccn23)cc2c1C(=O)N(CC(F)(F)F)CC2` [compound 55, 8-methoxy-6-[7-(3-morpholinopropoxy)imidazo[1,2-a]pyridin-3-yl]-2-(2,2,2-trifluoroethyl)-3,4-dihydro isoquinolin-1-one]: the EC50 in assay [1] was in the range of 100 to 1000 nM. Besides, the IC50 lay in the range of 100 to 500 nM at SIK1, 0.01 to 10 nM on SIK3 and 0.01 to 10 nM on SIK2.
Turning to `COc1cc(-c2cnc3cc(OC[C@@H]4CC(F)(F)CN4C)ccn23)cc(OC(F)F)c1C(=O)NC1CC1` [Cpd 189, N-cyclopropyl-2-(difluoromethoxy)-4-[7-[[(2S)-4,4-difluoro-1-methyl-pyrrolidin-2-yl]methoxy]imidazo[1,2-a]pyridin-3-yl]-6-methoxy-benzamide], in assay [1], the EC50 was 100 to 1000 nM. In addition, the results for the half-maximal inhibitory concentration (IC50) on SIK1, at SIK3 and at SIK2 were 10 to 100 nM, 0.01 to 10 nM and 0.01 to 10 nM, respectively.
For `COc1cc(-c2cnc3cc(OCC4CCO4)ccn23)cc(OC(F)F)c1C(=O)NC1CC1` (stereo not drawn) [compound 35, N-cyclopropyl-2-(difluoromethoxy)-6-methoxy-4-[7-(oxetan-2-ylmethoxy)imidazo[1,2-a]pyridin-3-yl]benzamide], the concentration giving a half-maximal response (EC50) in assay [1] was in the range of 100 to 1000 nM. Moreover, the IC50 lay in the range of 10 to 100 nM on SIK1, 0.01 to 10 nM at SIK3 and 0.01 to 10 nM at SIK2.
`COc1cc(-c2cnc3cc(OC[C@H]4COCCO4)ccn23)cc(OC(F)F)c1C(=O)NC1CC1` [compound 50, N-cyclopropyl-2-(difluoromethoxy)-4-[7-[[(2R)-1,4-dioxan-2-yl]methoxy]imidazo[1,2-a]pyridin-3-yl]-6-methoxy-benzamide]: in assay [1], the concentration for a half-maximal effect (EC50) was 100 to 1000 nM. In addition, the IC50 was 10 to 100 nM on SIK1, 0.01 to 10 nM against SIK3 and 0.01 to 10 nM on SIK2.

As a reminder, the EC50 is the concentration at which the effect is half-maximal. As usually defined, the IC50 is the point on the concentration scale where inhibition reaches its midpoint.
